Earlier results as cited in US20230117831A1, “MULTI-FUNCTIONAL CHIMERIC MOLECULES” (THE BROAD INSTITUTE, INC., priority 2020, published 2023).
pKd: −log10 of the molar value. Read-outs that look alike come from different tables or passages of the source.

Columns and labels:
PKCalpha = PKCalpha (Homo sapiens, UniProt P17252); details: cited from earlier work
PKC beta = PKC beta (Homo sapiens, UniProt P05771); details: PKC beta; read-out: Kd; cited from earlier work
PKC epsilon = target: T1, PKC epsilon (Homo sapiens, UniProt Q02156); details: PKC epsilon; read-out: Kd; cited from earlier work
T1 sequence (Q02156 1-737): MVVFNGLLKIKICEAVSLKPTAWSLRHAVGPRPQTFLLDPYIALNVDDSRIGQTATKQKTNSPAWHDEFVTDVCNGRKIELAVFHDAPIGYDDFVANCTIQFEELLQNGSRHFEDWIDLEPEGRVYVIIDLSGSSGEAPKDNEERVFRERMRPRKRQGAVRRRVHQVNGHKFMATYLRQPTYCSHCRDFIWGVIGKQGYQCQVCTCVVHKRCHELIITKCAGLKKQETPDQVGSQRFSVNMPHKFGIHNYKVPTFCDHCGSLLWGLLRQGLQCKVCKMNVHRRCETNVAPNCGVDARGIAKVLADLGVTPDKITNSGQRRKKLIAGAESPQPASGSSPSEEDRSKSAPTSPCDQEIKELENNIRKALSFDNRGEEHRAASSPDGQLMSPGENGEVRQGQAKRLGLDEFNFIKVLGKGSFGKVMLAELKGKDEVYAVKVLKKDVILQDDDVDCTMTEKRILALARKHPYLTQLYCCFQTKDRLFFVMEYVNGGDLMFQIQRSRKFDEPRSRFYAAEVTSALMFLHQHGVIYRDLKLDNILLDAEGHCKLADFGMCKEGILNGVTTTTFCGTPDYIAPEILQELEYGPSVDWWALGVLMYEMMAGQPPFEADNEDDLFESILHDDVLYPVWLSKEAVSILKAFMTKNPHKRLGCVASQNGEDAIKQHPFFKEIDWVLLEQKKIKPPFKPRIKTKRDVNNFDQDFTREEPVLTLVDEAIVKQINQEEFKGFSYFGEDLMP

PKC gamma = PKC gamma (Homo sapiens, UniProt P05129); details: cited from earlier work
PKC delta = PKC delta (Homo sapiens, UniProt Q05655); details: PKC delta; read-out: Kd; cited from earlier work
AurA (AURKA) = target: T2, AurA (AURKA) (Homo sapiens, UniProt O14965); details: cited from earlier work
T2 sequence (O14965 1-403): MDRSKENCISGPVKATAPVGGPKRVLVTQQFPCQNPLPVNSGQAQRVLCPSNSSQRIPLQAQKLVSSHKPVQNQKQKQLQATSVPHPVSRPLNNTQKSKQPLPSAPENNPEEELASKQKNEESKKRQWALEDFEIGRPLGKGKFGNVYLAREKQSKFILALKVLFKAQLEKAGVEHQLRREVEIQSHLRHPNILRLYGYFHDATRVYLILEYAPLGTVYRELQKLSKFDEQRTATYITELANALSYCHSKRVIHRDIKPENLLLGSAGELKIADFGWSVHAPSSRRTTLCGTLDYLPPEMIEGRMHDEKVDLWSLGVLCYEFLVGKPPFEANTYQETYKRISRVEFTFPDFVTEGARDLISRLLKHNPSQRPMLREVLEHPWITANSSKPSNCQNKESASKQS

PIK3Cα/PIK3R1 = PIK3Cα/PIK3R1 (Homo sapiens, UniProt P42336); details: cited from earlier work
PIK3Cγ = PIK3Cγ (Homo sapiens, UniProt P48736); details: cited from earlier work
PIK3Cδ/PIK3R1 = PIK3Cδ/PIK3R1 (Homo sapiens, UniProt O00329); details: cited from earlier work
Chain of PIK3Cδ/PIK3R1 (O00329 whole entry): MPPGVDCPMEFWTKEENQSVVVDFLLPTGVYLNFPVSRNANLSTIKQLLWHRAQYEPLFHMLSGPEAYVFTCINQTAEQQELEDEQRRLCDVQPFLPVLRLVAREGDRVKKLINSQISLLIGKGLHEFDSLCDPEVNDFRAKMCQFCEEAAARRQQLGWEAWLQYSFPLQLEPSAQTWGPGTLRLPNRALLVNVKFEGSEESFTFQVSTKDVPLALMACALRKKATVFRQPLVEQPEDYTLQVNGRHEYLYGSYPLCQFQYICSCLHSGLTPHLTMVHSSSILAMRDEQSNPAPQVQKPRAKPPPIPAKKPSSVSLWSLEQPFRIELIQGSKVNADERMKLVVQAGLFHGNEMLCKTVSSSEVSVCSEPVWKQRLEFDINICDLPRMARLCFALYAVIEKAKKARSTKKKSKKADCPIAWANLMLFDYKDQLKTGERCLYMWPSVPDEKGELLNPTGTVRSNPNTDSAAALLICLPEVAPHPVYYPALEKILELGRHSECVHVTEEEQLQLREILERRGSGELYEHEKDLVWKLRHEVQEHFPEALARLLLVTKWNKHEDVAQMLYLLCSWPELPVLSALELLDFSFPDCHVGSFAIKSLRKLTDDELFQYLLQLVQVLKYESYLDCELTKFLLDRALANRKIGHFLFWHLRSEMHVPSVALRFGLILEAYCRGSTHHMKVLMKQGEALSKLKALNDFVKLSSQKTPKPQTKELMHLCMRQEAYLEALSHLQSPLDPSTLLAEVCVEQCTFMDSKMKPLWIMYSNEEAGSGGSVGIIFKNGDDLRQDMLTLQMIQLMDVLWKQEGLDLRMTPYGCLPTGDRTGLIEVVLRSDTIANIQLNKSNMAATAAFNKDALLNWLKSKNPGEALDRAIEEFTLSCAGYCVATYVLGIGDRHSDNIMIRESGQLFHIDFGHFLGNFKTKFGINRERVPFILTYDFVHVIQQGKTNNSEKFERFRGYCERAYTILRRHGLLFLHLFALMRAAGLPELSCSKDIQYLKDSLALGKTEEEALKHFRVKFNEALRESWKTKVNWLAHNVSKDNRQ
Chain of PIK3Cδ/PIK3R1 (P27986 whole entry partner): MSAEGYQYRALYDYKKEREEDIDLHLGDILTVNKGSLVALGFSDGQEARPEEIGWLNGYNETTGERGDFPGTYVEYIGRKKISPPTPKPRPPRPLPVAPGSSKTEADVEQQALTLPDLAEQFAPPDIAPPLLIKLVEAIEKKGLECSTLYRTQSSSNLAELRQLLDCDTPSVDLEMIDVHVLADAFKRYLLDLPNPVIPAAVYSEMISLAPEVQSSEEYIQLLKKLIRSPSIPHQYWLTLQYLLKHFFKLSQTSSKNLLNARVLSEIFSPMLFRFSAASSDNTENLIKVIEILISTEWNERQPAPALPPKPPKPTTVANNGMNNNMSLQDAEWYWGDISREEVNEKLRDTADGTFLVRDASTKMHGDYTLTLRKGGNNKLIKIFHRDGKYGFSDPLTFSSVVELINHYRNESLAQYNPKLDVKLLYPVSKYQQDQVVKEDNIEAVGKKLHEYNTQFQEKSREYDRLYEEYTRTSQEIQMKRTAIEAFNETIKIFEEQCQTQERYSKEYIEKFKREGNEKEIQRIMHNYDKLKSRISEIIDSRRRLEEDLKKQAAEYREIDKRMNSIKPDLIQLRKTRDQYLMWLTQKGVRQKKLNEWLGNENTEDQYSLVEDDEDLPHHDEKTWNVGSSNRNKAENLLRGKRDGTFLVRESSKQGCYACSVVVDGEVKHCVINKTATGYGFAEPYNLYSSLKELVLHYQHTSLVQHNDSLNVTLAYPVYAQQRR

Chain of PIK3Cα/PIK3R1 (P42336 whole entry): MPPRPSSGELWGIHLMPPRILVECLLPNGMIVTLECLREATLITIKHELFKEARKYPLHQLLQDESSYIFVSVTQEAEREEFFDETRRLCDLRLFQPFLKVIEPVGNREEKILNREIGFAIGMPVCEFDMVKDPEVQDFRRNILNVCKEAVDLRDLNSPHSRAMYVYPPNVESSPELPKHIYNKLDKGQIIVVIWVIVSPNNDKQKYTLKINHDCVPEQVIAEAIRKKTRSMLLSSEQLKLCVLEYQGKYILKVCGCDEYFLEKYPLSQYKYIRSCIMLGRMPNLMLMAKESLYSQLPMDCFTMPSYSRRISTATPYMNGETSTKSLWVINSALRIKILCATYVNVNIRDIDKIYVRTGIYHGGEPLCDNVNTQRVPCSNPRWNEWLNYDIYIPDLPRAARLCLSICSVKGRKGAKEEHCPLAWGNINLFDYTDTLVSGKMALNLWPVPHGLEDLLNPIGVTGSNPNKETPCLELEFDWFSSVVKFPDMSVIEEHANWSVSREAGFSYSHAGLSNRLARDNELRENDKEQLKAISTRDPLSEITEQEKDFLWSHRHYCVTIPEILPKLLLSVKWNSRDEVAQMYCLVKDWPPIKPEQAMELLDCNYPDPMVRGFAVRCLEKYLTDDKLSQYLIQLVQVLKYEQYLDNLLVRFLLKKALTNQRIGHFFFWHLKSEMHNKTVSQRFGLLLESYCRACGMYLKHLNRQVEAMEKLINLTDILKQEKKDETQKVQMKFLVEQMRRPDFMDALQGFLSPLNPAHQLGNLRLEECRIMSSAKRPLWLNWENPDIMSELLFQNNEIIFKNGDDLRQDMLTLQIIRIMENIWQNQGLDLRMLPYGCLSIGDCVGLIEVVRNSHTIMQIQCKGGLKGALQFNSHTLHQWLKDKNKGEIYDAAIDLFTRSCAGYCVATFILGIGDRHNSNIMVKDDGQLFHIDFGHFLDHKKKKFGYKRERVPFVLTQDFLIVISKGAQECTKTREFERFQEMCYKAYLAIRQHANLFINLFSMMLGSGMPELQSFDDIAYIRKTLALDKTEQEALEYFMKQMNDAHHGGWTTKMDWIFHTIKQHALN
Chain of PIK3Cα/PIK3R1 (P27986 whole entry partner): as the sequence (P27986 whole entry partner) above
Chain of PIK3Cγ (P48736 whole entry): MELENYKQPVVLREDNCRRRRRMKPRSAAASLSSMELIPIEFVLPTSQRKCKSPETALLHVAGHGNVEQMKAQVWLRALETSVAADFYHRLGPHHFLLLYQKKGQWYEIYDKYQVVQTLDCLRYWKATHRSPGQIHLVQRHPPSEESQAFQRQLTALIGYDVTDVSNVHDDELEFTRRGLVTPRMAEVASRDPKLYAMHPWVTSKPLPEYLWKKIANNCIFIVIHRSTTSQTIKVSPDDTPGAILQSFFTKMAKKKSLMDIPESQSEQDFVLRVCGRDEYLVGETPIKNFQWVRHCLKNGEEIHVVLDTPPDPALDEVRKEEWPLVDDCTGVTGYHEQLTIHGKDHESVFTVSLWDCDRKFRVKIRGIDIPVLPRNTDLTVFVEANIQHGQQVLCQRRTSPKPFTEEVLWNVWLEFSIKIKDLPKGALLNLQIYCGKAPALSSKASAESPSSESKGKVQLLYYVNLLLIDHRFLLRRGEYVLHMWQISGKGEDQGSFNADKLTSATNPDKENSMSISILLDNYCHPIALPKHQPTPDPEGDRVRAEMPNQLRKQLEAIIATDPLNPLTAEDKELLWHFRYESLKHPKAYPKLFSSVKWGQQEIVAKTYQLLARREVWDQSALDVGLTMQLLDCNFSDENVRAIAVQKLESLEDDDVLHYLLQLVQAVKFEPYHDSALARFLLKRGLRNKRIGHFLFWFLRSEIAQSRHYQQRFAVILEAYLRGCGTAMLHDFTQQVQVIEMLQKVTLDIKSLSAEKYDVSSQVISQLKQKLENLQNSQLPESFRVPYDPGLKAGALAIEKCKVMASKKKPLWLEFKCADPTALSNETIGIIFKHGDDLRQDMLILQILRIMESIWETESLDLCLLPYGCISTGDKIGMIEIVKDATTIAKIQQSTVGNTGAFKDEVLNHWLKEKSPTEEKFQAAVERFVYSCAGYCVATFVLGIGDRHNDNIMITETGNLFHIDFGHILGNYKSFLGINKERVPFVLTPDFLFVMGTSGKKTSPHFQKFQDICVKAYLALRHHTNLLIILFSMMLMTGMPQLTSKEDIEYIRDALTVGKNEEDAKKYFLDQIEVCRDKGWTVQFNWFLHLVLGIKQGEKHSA

SMILES: CC(C)[C@H]1C(=O)N[C@H](CO)Cc2cc(NC(=O)CCCCc3ccc(CCC(F)(F)C(F)(F)C(F)(F)C(F)(F)C(F)(F)C(F)(F)F)cc3)ccc2N1C
- pKd (PKCalpha; PKC alpha, read-out: Kd): 8.04

SMILES: CCCCCCCCc1cccc(C(=O)Nc2ccc3c(c2)N(C)[C@@H](C(C)C)C(=O)NC(CO)C3)c1 (some centres unmarked)
- pKd (PKCalpha; PKC alpha, read-out: Kd): 8.49

SMILES: CCCCCCCCCCc1ccc2c(c1)C[C@@H](CO)NC(=O)[C@H](C(C)C)N2C
- pKd (PKC beta): 7.24
- pKd (PKC epsilon): 6.73
- pKd (PKC gamma): 6.85
- pKd (PKC delta): 6.73
- pKd (PKCalpha): 7.33

SMILES: CCCCCCCCC#Cc1ccccc1-c1ccc2c(c1)N(C)[C@@H](C(C)C)C(=O)NC(CO)C2 (some centres unmarked)
- pKd (PKCalpha; PKC alpha, read-out: Kd): 8.44

SMILES: CCCCCCCCC#Cc1ccc(-c2ccc3c(c2)N(C)[C@@H](C(C)C)C(=O)N[C@H](CO)C3)s1
- pKd (PKCalpha; PKC alpha, read-out: Kd): 7.60

SMILES: CO[C@@H](C(=O)N1Cc2n[nH]c(NC(=O)c3ccc(N4CCN(C)CC4)cc3)c2C1)c1ccccc1 [Danusertib]
- ka (AurA (AURKA)): 512000 M⁻¹ s⁻¹
- kd (AurA (AURKA)): 0.000868 s⁻¹
- log(ka) (AurA (AURKA)): 5.71
- log(kd) (AurA (AURKA)): −3.06

SMILES: CCCCCCCCC#Cc1cccc2c1C[C@@H](CO)NC(=O)[C@H](C(C)C)N2C
- pKd (PKC beta): 5.77
- pKd (PKC epsilon): 5.59
- pKd (PKC gamma; PKC gamma, read-out: Kd): < 5.00
- pKd (PKC delta): 5.68
- pKd (PKCalpha; PKC alpha, read-out: Kd): 5.34

SMILES: CC(C)[C@H]1C(=O)N[C@H](CO)Cc2cc(NC(=O)CCCCc3cc(C(F)(F)F)cc(C(F)(F)F)c3)ccc2N1C
- pKd (PKCalpha; PKC alpha, read-out: Kd): 8.11

SMILES: CCCCC#Cc1cccc(-c2ccc3c(c2)N(C)[C@@H](C(C)C)C(=O)N[C@H](CO)C3)c1
- pKd (PKCalpha; PKC alpha, read-out: Kd): 8.52

SMILES: CC(C)[C@H]1C(=O)NC(CO)Cc2ccc(NC(=O)CCc3ccccc3)cc2N1C (some centres unmarked)
- pKd (PKCalpha; PKC alpha, read-out: Kd): 6.94

SMILES: CC(C)[C@H]1C(=O)NC(CO)Cc2ccc(NCc3ccccc3)cc2N1C (some centres unmarked)
- pKd (PKCalpha; PKC alpha, read-out: Kd): 8.42

SMILES: CC(C)[C@H]1C(=O)N[C@H](CO)Cc2ccc(-c3ccc(NC(=O)OC(C)(C)C)cc3)cc2N1C
- pKd (PKCalpha; PKC alpha, read-out: Kd): 7.50

SMILES: CC(C)[C@H]1C(=O)N[C@H](CO)Cc2cc(NC(=O)CCCCc3ccccc3)ccc2N1C
- pKd (PKCalpha; PKC alpha, read-out: Kd): 7.47

SMILES: CC(C)[C@H]1C(=O)N[C@H](CO)Cc2ccccc2N1C
- pKd (PKCalpha; PKC alpha, read-out: Kd): 6.48

SMILES: CC(C)[C@H]1C(=O)N[C@H](CO)Cc2ccc(NC(=O)CCCCc3ccccc3)cc2N1C
- pKd (PKCalpha; PKC alpha, read-out: Kd): 7.74

SMILES: CC(C)C1C(=O)NC(CO)Cc2cc(NC(=O)C=CC=Cc3ccccc3)ccc2N1C (centres unmarked)
- pKd (PKCalpha; PKC alpha, read-out: Kd): 7.80

SMILES: CCCCC#Cc1ccccc1-c1ccc2c(c1)N(C)[C@@H](C(C)C)C(=O)NC(CO)C2 (some centres unmarked)
- pKd (PKCalpha; PKC alpha, read-out: Kd): 8.51

SMILES: CC(C)[C@H]1C(=O)N[C@H](CO)Cc2cc(NC(=O)CCCCc3ccc(/C=C/C(F)(F)C(F)(F)C(F)(F)C(F)(F)C(F)(F)C(F)(F)F)cc3)ccc2N1C
- pKd (PKCalpha; PKC alpha, read-out: Kd): 7.95

SMILES: Cn1c(=O)n(-c2ccc(C(C)(C)C#N)cc2)c2c3cc(-c4cnc5ccccc5c4)ccc3ncc21 [Dactolisib]
- ka (PIK3Cα/PIK3R1): 2.3e+06 M⁻¹ s⁻¹
- kd (PIK3Cα/PIK3R1): 0.0228 s⁻¹
- log(ka) (PIK3Cα/PIK3R1): 6.36
- log(kd) (PIK3Cα/PIK3R1): −1.64
- ka (PIK3Cγ): 589000 M⁻¹ s⁻¹
- kd (PIK3Cγ): 0.0433 s⁻¹
- log(ka) (PIK3Cγ): 5.77
- log(kd) (PIK3Cγ): −1.36
- ka (PIK3Cδ/PIK3R1): 1.52e+06 M⁻¹ s⁻¹
- kd (PIK3Cδ/PIK3R1): 0.0327 s⁻¹
- log(ka) (PIK3Cδ/PIK3R1): 6.16
- log(kd) (PIK3Cδ/PIK3R1): −1.49
